Test results reported in patent publication US12227500B2, “Substituted pyrrolo[2,3-b]pyridines for suppressing toxic endoplasmic reticulum stress” (THE TRUSTEES OF COLUMBIA UNIVERSITY IN THE CITY OF NEW YORK, priority 2018, dated 2025).

What was measured:
Assay in all cases: Radiolabeled ATP kinase assay, panel of 371 kinases (Table S6)
Format in all cases: biochemical
[1] = target: T1, panel of 371 human kinases (Homo sapiens, UniProt Q15835); details: GRK1; 0.1 μM; 10 μM ATP; read-out: % Enzyme Activity (relative to DMSO controls)
T1 construct: purchased Reaction Biology Corp
Source text: (§1) ; FIG. 38C). […]. Further targeted analyses, such as genetic knock-down or knock-out, may be warranted to parse the role of these additional kinases in our model of neurodegeneration.

[2] = target: T2, panel of 371 human kinases (Homo sapiens, UniProt Q04771); details: ALK2/ACVR1; 0.1 μM; 10 μM ATP; read-out: % Enzyme Activity (relative to DMSO controls)
T2 construct: purchased Reaction Biology Corp
Source text: as §1

[3] = target: T3, panel of 371 human kinases (Homo sapiens, UniProt O14757); details: CHK1; 0.1 μM; 10 μM ATP; read-out: % Enzyme Activity (relative to DMSO controls)
T3 construct: purchased Reaction Biology Corp
Source text: as §1

[4] = target: T4, panel of 371 human kinases (Homo sapiens, UniProt P31751); details: AKT2; 0.1 μM; 10 μM ATP; read-out: % Enzyme Activity (relative to DMSO controls)
T4 construct: purchased Reaction Biology Corp
Source text: as §1

[5] = target: T5, panel of 371 human kinases (Homo sapiens, UniProt P48730); details: CK1d; 0.1 μM; 10 μM ATP; read-out: % Enzyme Activity (relative to DMSO controls)
T5 construct: purchased Reaction Biology Corp
Source text: as §1

[6] = target: T6, panel of 371 human kinases (Homo sapiens, UniProt Q13627); details: DYRK1/DYRK1A; 0.1 μM; 10 μM ATP; read-out: % Enzyme Activity (relative to DMSO controls)
T6 construct: purchased Reaction Biology Corp
Source text: as §1

[7] = target: T7, panel of 371 human kinases (Homo sapiens, UniProt Q9HC98); details: NEK6; 0.1 μM; 10 μM ATP; read-out: % Enzyme Activity (relative to DMSO controls)
T7 construct: purchased Reaction Biology Corp
Source text: as §1

[8] = target: T8, panel of 371 human kinases (Homo sapiens, UniProt P45985); details: MKK4; 0.1 μM; 10 μM ATP; read-out: % Enzyme Activity (relative to DMSO controls)
T8 construct: purchased Reaction Biology Corp
Source text: as §1

[9] = target: T9, panel of 371 human kinases (Homo sapiens, UniProt Q9H0K1); details: SIK2; 0.1 μM; 10 μM ATP; read-out: % Enzyme Activity (relative to DMSO controls)
T9 construct: purchased Reaction Biology Corp
Source text: as §1

[10] = target: T10, panel of 371 human kinases (Homo sapiens, UniProt Q08345); details: DDR1; 0.1 μM; 10 μM ATP; read-out: % Enzyme Activity (relative to DMSO controls)
T10 construct: purchased Reaction Biology Corp
Source text: as §1

[11] = target: T11, panel of 371 human kinases (Homo sapiens, UniProt Q04912); details: RON/MST1R; 0.1 μM; 10 μM ATP; read-out: % Enzyme Activity (relative to DMSO controls)
T11 construct: purchased Reaction Biology Corp
Source text: as §1

[12] = target: T12, panel of 371 human kinases (Homo sapiens, UniProt Q15375); details: EPHA7; 0.1 μM; 10 μM ATP; read-out: % Enzyme Activity (relative to DMSO controls)
T12 construct: purchased Reaction Biology Corp
Source text: as §1

[13] = target: T13, panel of 371 human kinases (Homo sapiens, UniProt Q9UQB9); details: Aurora C; 0.1 μM; 10 μM ATP; read-out: % Enzyme Activity (relative to DMSO controls)
T13 construct: purchased Reaction Biology Corp
Source text: as §1

[14] = target: T14, panel of 371 human kinases (Homo sapiens, UniProt Q13177); details: PAK2; 0.1 μM; 10 μM ATP; read-out: % Enzyme Activity (relative to DMSO controls)
T14 construct: purchased Reaction Biology Corp
Source text: as §1

[15] = target: T15, panel of 371 human kinases (Homo sapiens, UniProt Q9UEW8); details: STK39/STLK3; 0.1 μM; 10 μM ATP; read-out: % Enzyme Activity (relative to DMSO controls)
T15 construct: purchased Reaction Biology Corp
Source text: as §1

[16] = target: T16, panel of 371 human kinases (Homo sapiens, UniProt P52333); details: JAK3; 0.1 μM; 10 μM ATP; read-out: % Enzyme Activity (relative to DMSO controls)
T16 construct: purchased Reaction Biology Corp
Source text: as §1

[17] = target: T17, panel of 371 human kinases (Homo sapiens, UniProt Q8TD08); details: ERK7/MAPK15; 0.1 μM; 10 μM ATP; read-out: % Enzyme Activity (relative to DMSO controls)
T17 construct: purchased Reaction Biology Corp
Source text: as §1

[18] = target: T18, panel of 371 human kinases (Homo sapiens, UniProt P29320); details: EPHA3; 0.1 μM; 10 μM ATP; read-out: % Enzyme Activity (relative to DMSO controls)
T18 construct: purchased Reaction Biology Corp
Source text: as §1

[19] = target: T19, panel of 371 human kinases (Homo sapiens, UniProt Q02156); details: PKCepsilon; 0.1 μM; 10 μM ATP; read-out: % Enzyme Activity (relative to DMSO controls)
T19 construct: purchased Reaction Biology Corp
Source text: as §1

[20] = target: T20, panel of 371 human kinases (Homo sapiens, UniProt O94804); details: LOK/STK10; 0.1 μM; 10 μM ATP; read-out: % Enzyme Activity (relative to DMSO controls)
T20 construct: purchased Reaction Biology Corp
Source text: as §1

[21] = target: T21, panel of 371 human kinases (Homo sapiens, UniProt Q8N5S9); details: CAMKK1; 0.1 μM; 10 μM ATP; read-out: % Enzyme Activity (relative to DMSO controls)
T21 construct: purchased Reaction Biology Corp
Source text: as §1

[22] = target: T22, panel of 371 human kinases (Homo sapiens, UniProt P42680); details: TEC; 0.1 μM; 10 μM ATP; read-out: % Enzyme Activity (relative to DMSO controls)
T22 construct: purchased Reaction Biology Corp
Source text: as §1

[23] = target: T23, panel of 371 human kinases (Homo sapiens, UniProt Q16584); details: for remaining activity at 0.1 µM: MLK3/MAP3K11, 10 μM ATP, read-out: % Enzyme Activity (relative to DMSO controls)
T23 construct: purchased Reaction Biology Corp
Source text: as §1

[24] = target: T24, panel of 371 human kinases (Homo sapiens, UniProt O75676); details: MSK2/RPS6KA4; 0.1 μM; 10 μM ATP; read-out: % Enzyme Activity (relative to DMSO controls)
T24 construct: purchased Reaction Biology Corp
Source text: as §1

T23 sequence (Q16584 whole entry): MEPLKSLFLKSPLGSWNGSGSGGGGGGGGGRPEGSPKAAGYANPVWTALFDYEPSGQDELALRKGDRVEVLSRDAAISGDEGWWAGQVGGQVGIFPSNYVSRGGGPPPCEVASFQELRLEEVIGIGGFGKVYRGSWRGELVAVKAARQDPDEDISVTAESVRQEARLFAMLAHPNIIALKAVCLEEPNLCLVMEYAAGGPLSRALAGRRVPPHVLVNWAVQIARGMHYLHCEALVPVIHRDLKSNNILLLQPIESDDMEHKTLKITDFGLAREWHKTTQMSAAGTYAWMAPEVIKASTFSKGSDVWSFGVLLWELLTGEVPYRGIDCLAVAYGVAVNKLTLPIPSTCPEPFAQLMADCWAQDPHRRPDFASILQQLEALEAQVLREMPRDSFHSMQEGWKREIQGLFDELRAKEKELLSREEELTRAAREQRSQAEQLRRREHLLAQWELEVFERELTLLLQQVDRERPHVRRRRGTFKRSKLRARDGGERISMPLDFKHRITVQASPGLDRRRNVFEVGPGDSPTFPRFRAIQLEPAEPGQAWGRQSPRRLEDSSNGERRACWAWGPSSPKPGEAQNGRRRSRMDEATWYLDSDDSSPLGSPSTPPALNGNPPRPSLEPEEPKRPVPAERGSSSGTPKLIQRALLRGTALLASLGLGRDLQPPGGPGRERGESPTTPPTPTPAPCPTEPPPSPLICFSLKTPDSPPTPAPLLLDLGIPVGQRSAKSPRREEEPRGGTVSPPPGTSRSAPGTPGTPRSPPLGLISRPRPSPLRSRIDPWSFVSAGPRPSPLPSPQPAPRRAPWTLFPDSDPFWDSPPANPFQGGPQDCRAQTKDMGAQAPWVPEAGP
T8 sequence (P45985 whole entry): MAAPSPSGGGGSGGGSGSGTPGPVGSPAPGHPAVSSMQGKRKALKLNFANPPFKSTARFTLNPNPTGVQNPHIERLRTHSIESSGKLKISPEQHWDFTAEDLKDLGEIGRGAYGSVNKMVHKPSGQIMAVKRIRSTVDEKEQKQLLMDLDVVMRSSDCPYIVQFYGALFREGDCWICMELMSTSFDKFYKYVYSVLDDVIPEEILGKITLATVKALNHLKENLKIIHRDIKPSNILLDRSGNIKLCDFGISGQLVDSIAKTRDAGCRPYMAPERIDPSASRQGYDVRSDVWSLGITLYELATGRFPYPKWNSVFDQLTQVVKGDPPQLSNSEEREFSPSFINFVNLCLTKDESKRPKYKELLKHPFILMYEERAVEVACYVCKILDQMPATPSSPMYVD
T14 sequence (Q13177 whole entry): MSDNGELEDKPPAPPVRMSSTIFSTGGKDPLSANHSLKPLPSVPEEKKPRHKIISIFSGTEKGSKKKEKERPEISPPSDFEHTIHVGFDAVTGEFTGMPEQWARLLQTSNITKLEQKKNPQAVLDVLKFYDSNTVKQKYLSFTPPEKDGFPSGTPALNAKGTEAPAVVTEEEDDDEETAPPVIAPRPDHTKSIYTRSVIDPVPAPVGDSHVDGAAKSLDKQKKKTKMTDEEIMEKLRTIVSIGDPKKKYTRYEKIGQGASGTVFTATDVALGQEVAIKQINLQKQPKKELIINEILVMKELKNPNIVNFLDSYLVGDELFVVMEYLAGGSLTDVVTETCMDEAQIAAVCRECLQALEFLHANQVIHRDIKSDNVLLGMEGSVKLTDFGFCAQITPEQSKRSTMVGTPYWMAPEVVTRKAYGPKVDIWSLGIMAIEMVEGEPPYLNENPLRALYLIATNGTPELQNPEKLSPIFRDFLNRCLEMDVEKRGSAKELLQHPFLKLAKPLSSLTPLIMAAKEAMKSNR
T4 sequence (P31751 whole entry): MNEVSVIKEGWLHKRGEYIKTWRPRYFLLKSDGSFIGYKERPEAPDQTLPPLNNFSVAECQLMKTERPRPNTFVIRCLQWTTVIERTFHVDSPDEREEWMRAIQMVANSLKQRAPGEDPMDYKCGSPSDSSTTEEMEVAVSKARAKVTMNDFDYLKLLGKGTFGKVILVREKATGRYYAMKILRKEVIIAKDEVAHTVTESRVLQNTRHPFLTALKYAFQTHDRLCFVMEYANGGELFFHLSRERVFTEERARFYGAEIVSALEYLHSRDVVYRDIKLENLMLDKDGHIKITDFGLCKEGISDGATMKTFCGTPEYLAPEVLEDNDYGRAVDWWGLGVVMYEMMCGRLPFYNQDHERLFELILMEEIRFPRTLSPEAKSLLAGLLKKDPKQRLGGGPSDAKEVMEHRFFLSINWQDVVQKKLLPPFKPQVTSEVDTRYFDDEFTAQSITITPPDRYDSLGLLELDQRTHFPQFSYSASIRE
T22 sequence (P42680 whole entry): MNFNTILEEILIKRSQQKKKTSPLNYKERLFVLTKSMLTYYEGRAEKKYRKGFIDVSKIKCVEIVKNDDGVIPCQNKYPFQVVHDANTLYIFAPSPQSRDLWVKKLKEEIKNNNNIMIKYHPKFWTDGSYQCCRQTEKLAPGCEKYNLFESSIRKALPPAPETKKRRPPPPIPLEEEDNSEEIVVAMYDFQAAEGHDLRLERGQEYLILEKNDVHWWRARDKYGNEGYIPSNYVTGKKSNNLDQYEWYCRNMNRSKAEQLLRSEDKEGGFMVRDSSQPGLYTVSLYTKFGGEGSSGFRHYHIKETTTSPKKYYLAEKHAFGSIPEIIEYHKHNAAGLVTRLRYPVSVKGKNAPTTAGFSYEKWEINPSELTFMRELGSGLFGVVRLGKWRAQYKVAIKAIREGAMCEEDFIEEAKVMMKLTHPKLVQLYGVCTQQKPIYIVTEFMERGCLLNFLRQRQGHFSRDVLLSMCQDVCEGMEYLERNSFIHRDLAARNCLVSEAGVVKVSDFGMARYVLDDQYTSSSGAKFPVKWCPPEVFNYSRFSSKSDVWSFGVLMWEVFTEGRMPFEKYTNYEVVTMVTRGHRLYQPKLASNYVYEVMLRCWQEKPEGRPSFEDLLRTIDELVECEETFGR
T19 sequence (Q02156 whole entry): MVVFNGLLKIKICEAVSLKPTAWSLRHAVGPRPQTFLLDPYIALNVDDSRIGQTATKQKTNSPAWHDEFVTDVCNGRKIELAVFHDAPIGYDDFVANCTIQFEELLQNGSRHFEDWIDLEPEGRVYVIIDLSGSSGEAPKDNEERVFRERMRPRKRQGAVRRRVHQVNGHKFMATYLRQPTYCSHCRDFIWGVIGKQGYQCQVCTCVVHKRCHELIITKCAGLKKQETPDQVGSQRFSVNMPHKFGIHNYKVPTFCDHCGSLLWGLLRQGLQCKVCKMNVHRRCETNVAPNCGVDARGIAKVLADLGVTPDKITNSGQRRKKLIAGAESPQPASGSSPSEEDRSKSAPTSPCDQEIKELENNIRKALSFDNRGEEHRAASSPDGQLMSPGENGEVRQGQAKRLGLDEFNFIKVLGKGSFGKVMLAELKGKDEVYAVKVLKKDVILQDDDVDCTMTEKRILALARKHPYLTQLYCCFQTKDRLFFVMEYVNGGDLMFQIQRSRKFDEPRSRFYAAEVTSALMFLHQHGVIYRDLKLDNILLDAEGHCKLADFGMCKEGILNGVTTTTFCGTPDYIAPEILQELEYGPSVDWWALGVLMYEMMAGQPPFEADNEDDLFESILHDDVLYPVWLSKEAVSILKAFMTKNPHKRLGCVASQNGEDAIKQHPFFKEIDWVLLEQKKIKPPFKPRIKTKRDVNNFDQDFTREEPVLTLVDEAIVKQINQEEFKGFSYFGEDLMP
T9 sequence (Q9H0K1 whole entry): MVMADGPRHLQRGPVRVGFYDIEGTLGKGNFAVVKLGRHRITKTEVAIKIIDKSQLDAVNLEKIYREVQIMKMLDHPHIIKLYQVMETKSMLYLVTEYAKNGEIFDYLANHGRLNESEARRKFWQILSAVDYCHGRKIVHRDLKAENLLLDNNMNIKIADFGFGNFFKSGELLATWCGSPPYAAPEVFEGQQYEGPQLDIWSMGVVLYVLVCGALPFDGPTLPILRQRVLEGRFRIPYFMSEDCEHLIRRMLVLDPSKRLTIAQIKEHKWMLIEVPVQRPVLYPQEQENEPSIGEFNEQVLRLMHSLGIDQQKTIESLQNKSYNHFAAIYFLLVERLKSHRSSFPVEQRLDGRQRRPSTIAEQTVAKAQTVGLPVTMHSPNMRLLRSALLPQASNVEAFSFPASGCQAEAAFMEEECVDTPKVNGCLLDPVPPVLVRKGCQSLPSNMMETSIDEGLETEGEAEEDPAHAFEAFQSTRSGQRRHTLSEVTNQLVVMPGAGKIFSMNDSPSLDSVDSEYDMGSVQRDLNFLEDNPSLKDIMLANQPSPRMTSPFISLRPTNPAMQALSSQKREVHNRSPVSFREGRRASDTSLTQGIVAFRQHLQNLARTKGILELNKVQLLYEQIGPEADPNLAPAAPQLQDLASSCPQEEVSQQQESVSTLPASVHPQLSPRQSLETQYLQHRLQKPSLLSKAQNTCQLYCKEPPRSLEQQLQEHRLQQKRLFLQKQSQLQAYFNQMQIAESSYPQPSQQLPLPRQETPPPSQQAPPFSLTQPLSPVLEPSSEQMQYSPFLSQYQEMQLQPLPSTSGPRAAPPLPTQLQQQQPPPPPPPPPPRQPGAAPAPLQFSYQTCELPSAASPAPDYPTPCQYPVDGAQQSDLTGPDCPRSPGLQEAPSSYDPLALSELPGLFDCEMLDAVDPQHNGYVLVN
T7 sequence (Q9HC98 whole entry): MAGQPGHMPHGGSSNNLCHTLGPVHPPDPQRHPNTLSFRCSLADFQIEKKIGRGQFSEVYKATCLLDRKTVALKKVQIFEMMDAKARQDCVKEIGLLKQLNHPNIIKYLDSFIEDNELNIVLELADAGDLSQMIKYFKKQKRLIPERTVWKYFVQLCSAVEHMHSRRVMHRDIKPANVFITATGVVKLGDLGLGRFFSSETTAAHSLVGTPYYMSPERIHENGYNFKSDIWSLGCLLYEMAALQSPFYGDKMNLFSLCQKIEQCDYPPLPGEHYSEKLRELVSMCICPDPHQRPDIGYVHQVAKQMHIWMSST

Structure (SMILES) | remaining activity at 0.1 µM [1] [%] | remaining activity at 0.1 µM [2] [%] | remaining activity at 0.1 µM [3] [%] | remaining activity at 0.1 µM [4] [%] | remaining activity at 0.1 µM [5] [%] | remaining activity at 0.1 µM [6] [%] | remaining activity at 0.1 µM [7] [%] | remaining activity at 0.1 µM [8] [%] | remaining activity at 0.1 µM [9] [%] | remaining activity at 0.1 µM [10] [%] | remaining activity at 0.1 µM [11] [%] | remaining activity at 0.1 µM [12] [%] | remaining activity at 0.1 µM [13] [%] | remaining activity at 0.1 µM [14] [%] | remaining activity at 0.1 µM [15] [%] | remaining activity at 0.1 µM [16] [%] | remaining activity at 0.1 µM [17] [%] | remaining activity at 0.1 µM [18] [%] | remaining activity at 0.1 µM [19] [%] | remaining activity at 0.1 µM [20] [%] | other results
CN1CCN(Cc2ccc(-c3cnc4[nH]cc(-c5ccc6[nH]ccc6c5)c4c3)cc2)CC1 [Compound 1, 3-(1H-Indol-5-yl)-5-(4-((4-methylpiperazin-1-yl)methyl)phenyl)-1H-pyrrolo[2,3-b]pyridine, reference compound] | 107 | 121 | 90 | 96.7 | 90 | 52.4 | 92.7 | 105 | 83.2 | 89.9 | 91.6 | 89.5 | 110 | 97.1 | 90.7 | 90.9 | 109 | 99.8 | 110 | 73.2 | remaining activity at 0.1 µM [21]: 103%; remaining activity at 0.1 µM [22]: 106%; remaining activity at 0.025 µM ([23]; 0.025 μM, read-out: MLK3 activity remaining): 56.4%; remaining activity at 0.1 µM [23]: 56.4%; remaining activity at 0.1 µM [24]: 114%
OCCN1CCN(Cc2ccc(-c3cnc4[nH]cc(-c5cccc(Cl)c5)c4c3)cc2)CC1 [Compound 12k, 2-(4-(4-(3-(3-Chlorophenyl)-1H-pyrrolo[2,3-b]pyridin-5-yl)benzyl)piperazin-1-yl)ethan-1-ol] | 92 | 126 | 75 | 103 | 92.8 | 40.7 | 95.1 | 110 | 59.8 | 86.6 | 94.1 | 91.3 | 97.3 | 85 | 77.3 | 76.2 | 90.4 | 98.2 | 98.6 | 59.1 | remaining activity at 0.1 µM [21]: 102%; remaining activity at 0.1 µM [22]: 99.9%; remaining activity at 0.1 µM [23]: 67%; remaining activity at 0.1 µM [24]: 110%
